One compound from ChEMBL document CHEMBL1255533, “PKI-179: an orally efficacious dual phosphatidylinositol-3-kinase (PI3K)/mammalian target of rapamycin (mTOR) inhibitor” (Bioorg Med Chem Lett, 2010) can be followed below.

For data set [1], the target named is Phosphatidylinositol 4,5-bisphosphate 3-kinase catalytic subunit gamma isoform (Homo sapiens, UniProt P48736). Put plainly: Inhibition of PI3K-gamma.
The target in data set [2] is Serine/threonine-protein kinase mTOR (Homo sapiens, UniProt P42345). Put plainly: Inhibition of mTOR.
Data set [3] relates to MDA-MB-361. Put plainly: Antiproliferative activity against human MDA-MB-361 cells. The class given is functional, cell-based.
The subject of data set [4] is PC-3. Kind of data set: Antiproliferative activity against human PC3 cells. The class given is functional, cell-based.
The target of data set [5] is Phosphatidylinositol 4,5-bisphosphate 3-kinase catalytic subunit beta isoform (Homo sapiens, UniProt P42338). Kind of data set: Inhibition of PI3K-beta.
Chain of Phosphatidylinositol 4,5-bisphosphate 3-kinase catalytic subunit beta isoform (P42338 whole entry, canonical isoform): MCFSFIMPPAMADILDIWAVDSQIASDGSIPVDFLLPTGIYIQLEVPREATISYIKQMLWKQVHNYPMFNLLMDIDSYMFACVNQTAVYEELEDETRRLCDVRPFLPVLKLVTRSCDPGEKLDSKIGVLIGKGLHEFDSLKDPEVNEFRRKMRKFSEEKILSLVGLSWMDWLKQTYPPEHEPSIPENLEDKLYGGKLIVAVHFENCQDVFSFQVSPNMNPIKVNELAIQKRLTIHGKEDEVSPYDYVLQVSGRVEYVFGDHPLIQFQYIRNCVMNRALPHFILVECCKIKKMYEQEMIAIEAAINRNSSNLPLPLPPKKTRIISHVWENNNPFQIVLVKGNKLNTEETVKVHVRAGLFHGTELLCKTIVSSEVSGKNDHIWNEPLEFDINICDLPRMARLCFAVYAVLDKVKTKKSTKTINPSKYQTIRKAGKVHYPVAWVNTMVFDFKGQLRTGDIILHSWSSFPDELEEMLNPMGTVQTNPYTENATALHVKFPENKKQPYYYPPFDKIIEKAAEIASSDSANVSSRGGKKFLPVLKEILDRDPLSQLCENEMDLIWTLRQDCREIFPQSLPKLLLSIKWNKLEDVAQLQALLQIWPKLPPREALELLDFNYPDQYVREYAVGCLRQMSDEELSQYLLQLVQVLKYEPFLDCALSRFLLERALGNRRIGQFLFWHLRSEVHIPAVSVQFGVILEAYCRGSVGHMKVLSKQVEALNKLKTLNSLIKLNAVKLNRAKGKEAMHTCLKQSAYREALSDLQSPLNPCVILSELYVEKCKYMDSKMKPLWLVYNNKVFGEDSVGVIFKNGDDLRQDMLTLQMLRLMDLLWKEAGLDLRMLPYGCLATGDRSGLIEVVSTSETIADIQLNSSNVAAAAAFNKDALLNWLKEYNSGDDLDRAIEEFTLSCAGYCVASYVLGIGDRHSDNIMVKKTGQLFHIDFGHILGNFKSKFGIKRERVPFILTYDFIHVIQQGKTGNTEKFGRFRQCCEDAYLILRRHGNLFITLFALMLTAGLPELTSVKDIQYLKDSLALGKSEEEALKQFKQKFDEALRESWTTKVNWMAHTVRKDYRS
Data set [6] deals with T1, Phosphatidylinositol 4,5-bisphosphate 3-kinase catalytic subunit delta isoform (Homo sapiens, UniProt O00329).
T1 sequence (O00329 whole entry): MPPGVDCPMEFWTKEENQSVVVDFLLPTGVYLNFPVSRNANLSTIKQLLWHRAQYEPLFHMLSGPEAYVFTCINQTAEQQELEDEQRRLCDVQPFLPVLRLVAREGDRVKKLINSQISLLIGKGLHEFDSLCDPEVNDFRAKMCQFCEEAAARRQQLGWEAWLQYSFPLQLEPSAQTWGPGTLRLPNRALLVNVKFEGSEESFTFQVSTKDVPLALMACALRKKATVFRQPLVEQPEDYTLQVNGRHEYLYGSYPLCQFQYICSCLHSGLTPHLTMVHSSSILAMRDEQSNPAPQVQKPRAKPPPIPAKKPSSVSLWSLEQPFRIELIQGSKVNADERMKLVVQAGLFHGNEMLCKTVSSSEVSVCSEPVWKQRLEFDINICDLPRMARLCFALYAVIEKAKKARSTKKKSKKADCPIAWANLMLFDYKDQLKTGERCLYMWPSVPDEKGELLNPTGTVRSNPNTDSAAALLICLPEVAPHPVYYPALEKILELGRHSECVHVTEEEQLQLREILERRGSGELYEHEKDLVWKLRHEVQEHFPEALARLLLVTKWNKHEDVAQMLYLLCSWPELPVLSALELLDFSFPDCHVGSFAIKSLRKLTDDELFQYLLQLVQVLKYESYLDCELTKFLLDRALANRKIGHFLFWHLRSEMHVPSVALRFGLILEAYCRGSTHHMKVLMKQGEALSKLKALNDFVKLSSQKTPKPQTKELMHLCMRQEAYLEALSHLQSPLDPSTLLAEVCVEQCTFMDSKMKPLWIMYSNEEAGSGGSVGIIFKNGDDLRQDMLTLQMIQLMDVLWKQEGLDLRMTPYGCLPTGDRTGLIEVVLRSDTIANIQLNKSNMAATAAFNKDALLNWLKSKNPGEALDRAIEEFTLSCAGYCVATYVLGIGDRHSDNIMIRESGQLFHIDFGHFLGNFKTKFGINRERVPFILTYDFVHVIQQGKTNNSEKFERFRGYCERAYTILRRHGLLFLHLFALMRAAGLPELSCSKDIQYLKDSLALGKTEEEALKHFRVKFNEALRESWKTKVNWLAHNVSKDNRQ
Kind of data set: Inhibition of PI3K-delta.

Data set [7] addresses Phosphatidylinositol 4,5-bisphosphate 3-kinase catalytic subunit alpha isoform (Homo sapiens, UniProt P42336, E545K). Kind of data set: Inhibition of PI3K-alpha E545K mutant.
Data set [8] concerns Mus musculus. Kind of data set: In vivo inhibition of mTORC1 in mouse bearing human MDA-MB-361 cells assessed as inhibition of S6 phosphorylation at 50 mg/kg, po. It is filed as functional, organism-based. The arrangement: dose 50 mg/kg.
The subject of data set [9] is MDA-MB-361. Put plainly: Induction of apoptosis in human MDA-MB-361 cells assessed as PARP cleavage after 4 hrs. It is filed as functional, cell-based.
Data set [10] deals with MDA-MB-361. Kind of data set: Antitumor activity against human MDA-MB-361 cells xenografted in mouse assessed as inhibition tumor growth at 10 mg/kg, po qd. The class given is functional, organism-based. On the set-up: dose 10 mg/kg.
For data set [11], the system named is Mus musculus. Put plainly: Toxicity in mouse assessed as weight loss at 10 mg/kg, po qd. It is filed as organism-based. On the set-up: dose 10 mg/kg, route oral. Conditions: in vivo.
Data set [12] addresses Cytochrome P450 3A4 (Homo sapiens, UniProt P08684). Kind of data set: Inhibition of CYP3A4. It is filed as ADME.
Data set [13] deals with Cytochrome P450 2C19 (Homo sapiens, UniProt P33261). Kind of data set: Inhibition of CYP2C19. The class given is ADME.
Chain of Cytochrome P450 2C19 (P33261 whole entry): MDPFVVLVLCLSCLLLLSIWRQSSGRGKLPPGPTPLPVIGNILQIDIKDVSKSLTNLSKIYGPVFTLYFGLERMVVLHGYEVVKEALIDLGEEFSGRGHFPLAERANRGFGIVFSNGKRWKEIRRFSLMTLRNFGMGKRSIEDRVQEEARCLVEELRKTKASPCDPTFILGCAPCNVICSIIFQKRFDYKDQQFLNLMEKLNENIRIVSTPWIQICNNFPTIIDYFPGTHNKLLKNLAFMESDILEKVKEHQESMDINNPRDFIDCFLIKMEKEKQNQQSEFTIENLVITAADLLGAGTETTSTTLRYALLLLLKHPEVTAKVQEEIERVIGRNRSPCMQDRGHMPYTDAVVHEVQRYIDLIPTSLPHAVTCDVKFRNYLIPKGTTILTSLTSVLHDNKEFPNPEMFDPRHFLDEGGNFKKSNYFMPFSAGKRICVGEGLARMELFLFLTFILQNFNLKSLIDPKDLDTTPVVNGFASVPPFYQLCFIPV
Data set [14] concerns the target T2, Cytochrome P450 2A6 (Homo sapiens, UniProt P11509).
T2 sequence (P11509 whole entry): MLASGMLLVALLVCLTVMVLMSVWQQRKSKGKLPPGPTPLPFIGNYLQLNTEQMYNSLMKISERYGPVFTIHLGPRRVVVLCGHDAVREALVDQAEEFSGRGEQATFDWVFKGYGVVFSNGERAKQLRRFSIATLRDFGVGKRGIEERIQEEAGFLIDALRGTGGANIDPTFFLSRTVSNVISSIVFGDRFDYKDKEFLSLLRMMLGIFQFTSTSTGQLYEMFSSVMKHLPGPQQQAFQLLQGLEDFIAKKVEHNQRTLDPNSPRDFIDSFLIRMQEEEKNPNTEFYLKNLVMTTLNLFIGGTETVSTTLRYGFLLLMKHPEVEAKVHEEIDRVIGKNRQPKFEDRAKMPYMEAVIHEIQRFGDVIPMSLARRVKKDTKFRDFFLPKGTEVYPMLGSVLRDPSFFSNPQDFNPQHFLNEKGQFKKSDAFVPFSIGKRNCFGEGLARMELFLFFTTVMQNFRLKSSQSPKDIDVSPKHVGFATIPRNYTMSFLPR
Put plainly: Inhibition of CYP2A6. The class given is ADME.

Data set [15] deals with T3, Cytochrome P450 1A2 (Homo sapiens, UniProt P05177).
T3 sequence (P05177 whole entry): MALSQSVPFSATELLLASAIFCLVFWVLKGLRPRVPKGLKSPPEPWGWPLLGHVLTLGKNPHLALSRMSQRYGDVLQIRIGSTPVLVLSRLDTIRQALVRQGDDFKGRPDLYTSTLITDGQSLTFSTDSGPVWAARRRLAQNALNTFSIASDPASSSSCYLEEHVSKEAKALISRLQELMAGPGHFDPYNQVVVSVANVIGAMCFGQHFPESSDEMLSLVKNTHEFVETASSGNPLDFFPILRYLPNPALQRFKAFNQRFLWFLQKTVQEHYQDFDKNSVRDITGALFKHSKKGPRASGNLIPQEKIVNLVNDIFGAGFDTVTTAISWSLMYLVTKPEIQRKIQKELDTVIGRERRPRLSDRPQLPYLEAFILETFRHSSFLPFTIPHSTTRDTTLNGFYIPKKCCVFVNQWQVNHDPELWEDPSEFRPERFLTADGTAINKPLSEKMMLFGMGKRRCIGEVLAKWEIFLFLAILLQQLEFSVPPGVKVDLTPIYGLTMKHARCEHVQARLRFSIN
Kind of data set: Inhibition of CYP1A2. It is filed as ADME.

Calls of active or inactive are those of the source. No cut-off for these calls is given here.

Chain of Phosphatidylinositol 4,5-bisphosphate 3-kinase catalytic subunit gamma isoform (P48736 whole entry, canonical isoform): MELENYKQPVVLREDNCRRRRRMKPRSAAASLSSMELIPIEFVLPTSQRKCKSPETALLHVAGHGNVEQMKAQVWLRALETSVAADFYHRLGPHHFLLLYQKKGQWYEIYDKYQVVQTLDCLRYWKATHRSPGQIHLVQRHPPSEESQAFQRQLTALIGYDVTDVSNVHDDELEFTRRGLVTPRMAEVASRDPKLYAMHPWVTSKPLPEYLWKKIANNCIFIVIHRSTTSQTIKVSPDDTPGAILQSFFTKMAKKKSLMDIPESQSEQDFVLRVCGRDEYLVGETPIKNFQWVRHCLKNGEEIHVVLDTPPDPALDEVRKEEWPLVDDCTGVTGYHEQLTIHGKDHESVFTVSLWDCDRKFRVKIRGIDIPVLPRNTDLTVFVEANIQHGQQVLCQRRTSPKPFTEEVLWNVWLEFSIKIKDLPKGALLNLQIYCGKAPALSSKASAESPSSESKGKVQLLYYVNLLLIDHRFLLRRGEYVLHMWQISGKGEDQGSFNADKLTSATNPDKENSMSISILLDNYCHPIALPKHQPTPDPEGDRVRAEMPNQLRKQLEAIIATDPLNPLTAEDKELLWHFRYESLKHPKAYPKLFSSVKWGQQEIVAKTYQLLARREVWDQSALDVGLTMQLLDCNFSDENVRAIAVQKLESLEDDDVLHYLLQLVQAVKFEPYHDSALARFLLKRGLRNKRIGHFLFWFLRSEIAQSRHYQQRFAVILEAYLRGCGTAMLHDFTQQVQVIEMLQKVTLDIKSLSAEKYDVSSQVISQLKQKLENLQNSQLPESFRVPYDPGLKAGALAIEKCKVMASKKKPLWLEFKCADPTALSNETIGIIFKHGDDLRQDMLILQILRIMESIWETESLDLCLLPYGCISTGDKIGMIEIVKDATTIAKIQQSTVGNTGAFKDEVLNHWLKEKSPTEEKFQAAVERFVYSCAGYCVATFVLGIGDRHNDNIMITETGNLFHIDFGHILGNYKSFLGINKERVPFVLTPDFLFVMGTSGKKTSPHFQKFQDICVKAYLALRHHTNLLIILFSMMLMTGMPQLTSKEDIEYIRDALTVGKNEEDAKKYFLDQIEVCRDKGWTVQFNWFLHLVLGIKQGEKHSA
Chain of Phosphatidylinositol 4,5-bisphosphate 3-kinase catalytic subunit alpha isoform (P42336 whole entry E545K, canonical isoform): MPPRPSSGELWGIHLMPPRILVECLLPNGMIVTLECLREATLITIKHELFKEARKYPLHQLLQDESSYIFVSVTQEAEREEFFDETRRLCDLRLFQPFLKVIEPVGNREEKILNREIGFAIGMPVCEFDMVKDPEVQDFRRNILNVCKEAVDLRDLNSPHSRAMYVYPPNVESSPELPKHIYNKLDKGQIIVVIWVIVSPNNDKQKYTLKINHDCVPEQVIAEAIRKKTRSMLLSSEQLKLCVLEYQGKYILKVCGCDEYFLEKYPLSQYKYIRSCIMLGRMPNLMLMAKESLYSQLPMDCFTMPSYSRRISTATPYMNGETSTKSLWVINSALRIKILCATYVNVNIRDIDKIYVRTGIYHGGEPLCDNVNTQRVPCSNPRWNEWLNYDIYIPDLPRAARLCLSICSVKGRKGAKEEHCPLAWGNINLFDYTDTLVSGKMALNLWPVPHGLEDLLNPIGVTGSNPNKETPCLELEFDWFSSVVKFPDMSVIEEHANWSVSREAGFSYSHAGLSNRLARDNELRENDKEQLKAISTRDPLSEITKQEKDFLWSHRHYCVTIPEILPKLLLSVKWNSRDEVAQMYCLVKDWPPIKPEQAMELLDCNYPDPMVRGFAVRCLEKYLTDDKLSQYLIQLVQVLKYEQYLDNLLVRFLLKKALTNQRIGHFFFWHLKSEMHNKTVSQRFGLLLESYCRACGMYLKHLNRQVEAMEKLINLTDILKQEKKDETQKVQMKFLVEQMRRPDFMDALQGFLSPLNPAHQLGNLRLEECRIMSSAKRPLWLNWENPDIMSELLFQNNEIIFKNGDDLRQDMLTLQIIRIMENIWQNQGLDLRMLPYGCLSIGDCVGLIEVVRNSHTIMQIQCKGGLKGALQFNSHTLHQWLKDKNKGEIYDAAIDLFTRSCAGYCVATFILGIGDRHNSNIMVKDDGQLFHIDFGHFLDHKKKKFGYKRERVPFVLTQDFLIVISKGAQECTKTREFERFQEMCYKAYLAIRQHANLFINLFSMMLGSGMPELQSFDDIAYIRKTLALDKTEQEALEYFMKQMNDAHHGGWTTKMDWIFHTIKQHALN
Chain of Cytochrome P450 3A4 (P08684 whole entry): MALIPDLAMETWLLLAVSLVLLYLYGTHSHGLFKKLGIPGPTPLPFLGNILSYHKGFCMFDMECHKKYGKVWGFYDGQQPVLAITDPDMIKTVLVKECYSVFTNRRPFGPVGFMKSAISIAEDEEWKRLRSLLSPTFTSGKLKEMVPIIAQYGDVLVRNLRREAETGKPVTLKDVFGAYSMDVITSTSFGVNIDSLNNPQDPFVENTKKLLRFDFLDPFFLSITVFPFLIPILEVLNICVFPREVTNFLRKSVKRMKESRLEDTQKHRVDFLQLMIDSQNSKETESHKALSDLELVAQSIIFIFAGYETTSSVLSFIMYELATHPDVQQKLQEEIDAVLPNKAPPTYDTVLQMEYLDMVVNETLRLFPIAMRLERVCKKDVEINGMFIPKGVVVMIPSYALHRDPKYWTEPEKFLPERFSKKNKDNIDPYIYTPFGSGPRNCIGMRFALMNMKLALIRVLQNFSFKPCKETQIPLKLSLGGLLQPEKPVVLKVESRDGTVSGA

Take `O=C(Nc1ccncc1)Nc1ccc(-c2nc(N3CCOCC3)nc(N3C4CCC3COC4)n2)cc1` [PKI-179]: the IC50 in [1] amounted to 74 nM; in [2], 0.42 nM; in data set [3] it was 22 nM; in data set [4], 29 nM; in data set [5], 24 nM; in [6] it was 77 nM. Moreover, the IC50 in [7] was 14 nM; in data set [12], over 30000 nM; in [13] it was over 30000 nM; in data set [14], over 30000 nM; in data set [15] it was over 30000 nM. Also, the inhibition result in data set [8] and in data set [10] was “Active” in each case. Also, the result in [9] was Active. Moreover, the Activity entry in [11] is “Non-toxic”.
